Results taken from patent publication US5677148A (priority 1995, dated 1997).
Where two headings read alike, the source gives them in different places.

Test system: A431 cells
Assay: Sensitivity of DAB-EGF chimeric toxin cytotoxicity to chloroquine ([3H]leucine incorporation)
Conditions: for activity at 10 µM: Homo sapiens; for Percent of Control Incorporation: 20-hour incubation
Procedure: To determine if the cytotoxicity of DAB486 EGF and DAB389 EGF is also dependent upon the same pathway, A431 cells were plated in sextuplicate wells of 96 well plates containing DAB486 EGF, DAB389 EGF or DMEM+10% FCS in the absence or presence of chloroquine (10^-5 M) (Sigma). […] Following a 20-hour incubation at 37° C., the cells were labeled with [^3 H] leucine, trypsinized, harvested onto glass fiber filter mats and counted.

`CCN(CC)CCCC(C)Nc1ccnc2cc(Cl)ccc12` (stereo not shown) [Chloroquine] was tested, and the activity at 10 µM (A-431, read-out: Percent of Control Incorporation, chloroquine 10^-5 M, DAB389 EGF concentration 0, 20-hour incubation at 37° C., [3H]leucine, mean of three experiments) was 73%, the activity at 10 µM (A-431, read-out: Percent of Control Incorporation, chloroquine 10^-5 M, DAB486 EGF concentration 0, 20-hour incubation at 37° C., [3H]leucine, mean of three experiments) was 86% and the “Percent of Control Incorporation” value (chloroquine 10^-5 M with DAB389 EGF 10^-11 M, [3H]leucine (no addition: 4)) was 61%. The “Percent of Control Incorporation” value (chloroquine 10^-5 M with DAB389 EGF 10^-12 M, [3H]leucine (no addition: 57)) was 100%, the “Percent of Control Incorporation” value (chloroquine 10^-5 M with DAB486 EGF 10^-8 M, [3H]leucine (no addition: 5)) was 60% and the “Percent of Control Incorporation” value (chloroquine 10^-5 M with DAB486 EGF 10^-9 M, [3H]leucine (no addition: 25)) was 96%. The “Effect on the cytotoxicity of DT-EGF chimeric toxins” value (chloroquine 10^-5 M, A431 cells, DAB486 EGF or DAB389 EGF) was “blocks the cytotoxicity”.
